ChEMBL document CHEMBL5500426, “Directly Suppressing MYC Function with Novel Alkynyl-Substituted Phenylpyrazole Derivatives that Induce Protein Degradation and Perturb MYC/MAX Interaction” (J Med Chem, 2024)
Calls of active or inactive are those of the source. No cut-off for these calls is given here.

Experiments:
PC-3 = assay: Antiproliferative activity against human PC-3 cells assessed as inhibition of cell growth incubated for 72 hrs by MTT assay; format: functional, cell-based; conditions: PC-3, 72 h
A549 = assay: Antiproliferative activity against human A549 cells assessed as inhibition of cell growth incubated for 72 hrs by MTT assay; format: functional, cell-based; conditions: A549, 72 h
Myc-CaP = assay: Antiproliferative activity against mouse Myc-CaP cells assessed as inhibition of cell growth incubated for 72 hrs by MTT assay; format: functional, cell-based
HL-60 = assay: Antiproliferative activity against human HL-60 cells assessed as inhibition of cell growth incubated for 72 hrs by MTT assay; format: functional, cell-based; conditions: HL-60, 72 h
SGC-7901 = assay: Antiproliferative activity against human SGC-7901 cells assessed as inhibition of cell growth incubated for 72 hrs by MTT assay; format: functional, cell-based; conditions: SGC-7901, 72 h
MDA-MB-231 = assay: Antiproliferative activity against human MDA-MB-231 cells assessed as inhibition of cell growth incubated for 72 hrs by MTT assay; format: functional, cell-based; conditions: MDA-MB-231, 72 h
HCT-116 = assay: Antiproliferative activity against human HCT-116 cells assessed as inhibition of cell growth incubated for 72 hrs by MTT assay; format: functional, cell-based; conditions: HCT-116, 72 h
MV4-11 = assay: Antiproliferative activity against human MV4-11 cells assessed as inhibition of cell growth incubated for 72 hrs by MTT assay; format: functional, cell-based; conditions: MV4-11, 72 h
SK-N-BE(2) = assay: Antiproliferative activity against human SK-N-BE(2) cells assessed as inhibition of cell growth incubated for 72 hrs by MTT assay; format: functional, cell-based; conditions: SKNBE2, 72 h
[1] = target: Myc proto-oncogene protein (Homo sapiens) (UniProt P01106); assay: Inhibition of MYC in human PC-3 cells assessed as downregulation of MYC expression incubated for 24 hrs by Western blotting analysis; format: cell-based
MDA-MB-468 = assay: Antiproliferative activity against human MDA-MB-468 cells assessed as inhibition of cell growth incubated for 72 hrs by MTT assay; format: functional, cell-based; conditions: MDA-MB-468, 72 h
[2] = target: c-Myc/c-Max (Homo sapiens) (UniProt P01106+P61244); assay: Inhibition of MYC/MAX protein-protein interaction in human PC-3 cells at 10 uM incubated for 1 hr by Co-immunoprecipitation based immunoblotting analysis; format: cell-based
[3] = Cytotoxicity against human GES1 cells assessed as inhibition of cell growth incubated for 72 hrs by MTT assay; format: toxicity, cell-based
[4] = Cytotoxicity against human HUVEC cells assessed as inhibition of cell growth incubated for 72 hrs by MTT assay; format: toxicity, cell-based
[5] = target: Myc proto-oncogene protein (Homo sapiens) (UniProt P01106); assay: Inhibition of MYC in human PC-3 cells assessed as downregulation of MYC expression at 1 uM incubated for 24 hrs by Western blotting analysis relative to control; format: cell-based
SK-OV-3 = assay: Antiproliferative activity against human SK-OV-3 cells assessed as inhibition of cell growth incubated for 72 hrs by MTT assay; format: functional, cell-based; conditions: SK-OV-3, 72 h
HepG2 = assay: Antiproliferative activity against human HepG2 cells assessed as inhibition of cell growth incubated for 72 hrs by MTT assay; format: functional, cell-based; conditions: HepG2, 72 h

Myc proto-oncogene protein (Homo sapiens), sequence (P01106 whole entry): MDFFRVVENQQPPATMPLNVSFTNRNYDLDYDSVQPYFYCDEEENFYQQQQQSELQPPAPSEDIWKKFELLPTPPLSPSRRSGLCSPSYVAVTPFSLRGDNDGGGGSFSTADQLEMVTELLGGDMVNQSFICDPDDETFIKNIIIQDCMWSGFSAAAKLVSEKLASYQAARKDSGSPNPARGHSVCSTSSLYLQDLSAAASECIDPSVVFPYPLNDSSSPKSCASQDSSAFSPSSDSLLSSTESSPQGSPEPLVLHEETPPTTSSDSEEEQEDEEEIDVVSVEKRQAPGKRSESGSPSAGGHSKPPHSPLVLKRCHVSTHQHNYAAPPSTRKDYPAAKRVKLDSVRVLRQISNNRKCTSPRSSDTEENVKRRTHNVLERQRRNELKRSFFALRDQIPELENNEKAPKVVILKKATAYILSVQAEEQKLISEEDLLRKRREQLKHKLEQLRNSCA
c-Myc/c-Max (Homo sapiens), sequence (P01106 whole entry): as above
c-Myc/c-Max (Homo sapiens), sequence (P61244 2-160 partner limits assumed): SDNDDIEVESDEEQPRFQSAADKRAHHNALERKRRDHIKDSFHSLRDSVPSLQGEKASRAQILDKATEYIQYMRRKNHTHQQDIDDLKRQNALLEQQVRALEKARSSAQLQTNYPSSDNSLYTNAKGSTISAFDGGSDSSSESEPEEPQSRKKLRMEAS

SMILES	IC50 (PC-3)	also measured
Oc1c(-c2cc(C(F)(F)F)n[nH]2)ccc(OCc2ccc(Cl)cc2)c1C#CCCN1CCC(O)CC1	6.07 µM	–
Oc1c(-c2cc(C(F)(F)F)n[nH]2)ccc(C#CCCN2CCN(C3COC3)CC2)c1-c1ccc(Cl)c(C(F)(F)F)c1	1.89 µM	–
Cn1nc(C(F)(F)F)cc1-c1ccc(C#CCCCO)c(-c2ccc(Cl)c(C(F)(F)F)c2)c1O	65.5 µM	–
Oc1c(-c2cc(C(F)(F)F)n[nH]2)ccc(OCc2ccc(Cl)cc2)c1C#CCN1CC2(COC2)C1	23.6 µM	–
Oc1c(-c2cc(C(F)(F)F)n[nH]2)ccc(OCc2ccc(Cl)cc2)c1C#CCN1CCN(C2COC2)CC1	8.24 µM	–
Oc1c(-c2cc(C(F)(F)F)n[nH]2)ccc(OCc2ccc(Cl)cc2)c1C#CCCCN1CCCCC1	4.42 µM	–
Oc1c(-c2cc(C(F)(F)F)n[nH]2)ccc(OCc2ccc(Cl)cc2)c1C#CCN1CCOCC1	73.2 µM	–
CN1CCN(CC#Cc2ccc(-c3cc(C(F)(F)F)n[nH]3)c(O)c2-c2ccc(Cl)c(C(F)(F)F)c2)CC1	4.13 µM	–
OCCCC#Cc1c(OCc2ccc(Cl)cc2)ccc(-c2cc(C(F)(F)F)n[nH]2)c1O	12.9 µM	–
Cn1nc(C(F)(F)F)cc1-c1ccc(C#CCN2CCOCC2)c(-c2ccc(Cl)c(C(F)(F)F)c2)c1O	58.5 µM	–
CN1CCN(CCCC#Cc2c(OCc3ccc(Cl)cc3)ccc(-c3cc(C(F)(F)F)n[nH]3)c2O)CC1	8.43 µM	–
CN1CCN(CCC#Cc2ccc(-c3cc(C(F)(F)F)n[nH]3)c(O)c2-c2ccc(Cl)c(C(F)(F)F)c2)CC1	3.07 µM	–
CN(C)CC#Cc1c(OCc2ccc(Cl)cc2)ccc(-c2cc(C(F)(F)F)n[nH]2)c1O	> 100 µM	–
Oc1c(-c2cc(C(F)(F)F)n[nH]2)ccc(C#CCCN2CCCCC2)c1-c1ccc(Cl)c(C(F)(F)F)c1	3.38 µM	–
OCCC#Cc1c(OCc2ccc(Cl)cc2)ccc(-c2cc(C(F)(F)F)n[nH]2)c1O	31 µM	–
Oc1c(-c2cc(C(F)(F)F)n[nH]2)ccc(OCc2ccc(Cl)cc2)c1C#CCCCN1CCOCC1	9.89 µM	–
Oc1c(-c2cc(C(F)(F)F)n[nH]2)ccc(C#CCN2CCOCC2)c1-c1ccc(Cl)c(C(F)(F)F)c1	2.02 µM	–
Oc1c(-c2cc(C(F)(F)F)n[nH]2)ccc(OCc2ccc(Cl)cc2)c1C#CCN1CCCC1	> 100 µM	–

SMILES	IC50 (PC-3)	also measured
CC(C)(O)CCC#Cc1c(OCc2ccc(Cl)cc2)ccc(-c2cc(C(F)(F)F)n[nH]2)c1O	6.7 µM	–
Cn1nc(C(F)(F)F)cc1-c1ccc(OCc2ccc(Cl)cc2)c(-c2ccc(Cl)c(C(F)(F)F)c2)c1O	6.62 µM	IC50 (A549): 4.31 µM; IC50 (Myc-CaP): 4.16 µM; IC50 (HL-60): 3.78 µM; IC50 (SGC-7901): 4.37 µM; IC50 (MDA-MB-231): 5.84 µM; IC50 (HCT-116): 1.37 µM; IC50 (MV4-11): 1.53 µM; IC50 (SK-N-BE(2)): 1.74 µM; inhibition [1]: Dose-Dependent Effect; IC50 (MDA-MB-468): 7.08 µM; inhibition [2]: Active; IC50 at 72 h [3]: > 100 µM; IC50 at 72 h [4]: > 100 µM; inhibition [5]: 31%; IC50 (SK-OV-3): 1.74 µM; IC50 (HepG2): 1.57 µM
Oc1c(-c2cc(C(F)(F)F)n[nH]2)ccc(C#CCCN2CC3(COC3)C2)c1-c1ccc(Cl)c(C(F)(F)F)c1	2.8 µM	–
Oc1c(-c2cc(C(F)(F)F)n[nH]2)ccc(OCc2ccc(Cl)cc2)c1C#CCN1CCC(N2CCOCC2)CC1	> 100 µM	–
Cn1nc(C(F)(F)F)cc1-c1ccc(OCc2ccc(Cl)cc2)c(C#CCCCO)c1O	> 100 µM	–
Oc1c(-c2cc(C(F)(F)F)n[nH]2)ccc(OCc2ccc(Cl)cc2)c1C#CCCN1CCCCC1	3.65 µM	–
Oc1c(-c2cc(C(F)(F)F)n[nH]2)ccc(OCc2ccc(Cl)cc2)c1C#CCN1CCC(O)CC1	33.4 µM	–
CN1CCN(CCC#Cc2c(OCc3ccc(Cl)cc3)ccc(-c3cc(C(F)(F)F)n[nH]3)c2O)CC1	15.3 µM	–
CN1CCN(CC#Cc2ccc(-c3cc(C(F)(F)F)nn3C)c(O)c2-c2ccc(Cl)c(C(F)(F)F)c2)CC1	20.2 µM	–
Oc1c(-c2cc(C(F)(F)F)n[nH]2)ccc(OCc2ccc(Cl)cc2)c1C#CCN1CCCCC1	44 µM	–
Cn1nc(C(F)(F)F)cc1-c1ccc(OCc2ccc(Cl)cc2)c(C#CCN2CCOCC2)c1O	> 100 µM	–
Oc1c(-c2cc(C(F)(F)F)n[nH]2)ccc(OCc2ccc(Cl)cc2)c1C#CCCN1CC2(COC2)C1	4.88 µM	–
CN1CCN(CC#Cc2c(OCc3ccc(Cl)cc3)ccc(-c3cc(C(F)(F)F)n[nH]3)c2O)CC1	6.89 µM	–
CN1CCN(CC#Cc2c(OCc3ccc(Cl)cc3)ccc(-c3cc(C(F)(F)F)nn3C)c2O)CC1	16.6 µM	–
Cn1nc(C(F)(F)F)cc1-c1ccc(C#CCCC(C)(C)O)c(-c2ccc(Cl)c(C(F)(F)F)c2)c1O	30.1 µM	–
CC(C)(O)CCC#Cc1ccc(-c2cc(C(F)(F)F)n[nH]2)c(O)c1-c1ccc(Cl)c(C(F)(F)F)c1	2.36 µM	–
Oc1c(-c2cc(C(F)(F)F)n[nH]2)ccc(OCc2ccc(Cl)cc2)c1C#CCCN1CCOCC1	8.51 µM	–
